# Data taken from ChEMBL document CHEMBL1150639, “Antiplasmodial compounds from Cochlospermum tinctorium” (J Nat Prod, 2002).
# System: Plasmodium falciparum
# Experiment: Antiplasmodial activity against chloroquine-sensitive Plasmodium falciparum 3D7
# Assay type: functional, organism-based
row,SMILES,IC50
1,CCCCCCCCCCCC(=O)CCO,68 µM
2,C=C(C)[C@@H]1CC[C@]2(C(=O)O)CC[C@]3(C)[C@H](CC[C@@H]4[C@@]5(C)C[C@@H](O)[C@H](O)C(C)(C)[C@@H]5CC[C@]43C)[C@@H]12 [ALPHITOLIC ACID],35 µM
